What follows are molecules tested against human BTK (Homo sapiens (Human), UniProt Q06187) (assay: BTK activity, Invitrogen SelectScreen Biochemical Kinase Profiling Service, Z'-LYTE Screening Protocol). Settings: Z'-LYTE assay, ATP concentration at Km.
Procedure: BTK activity was determined using Invitrogen's SelectScreen® Biochemical Kinase Profiling Service using the Z′-LYTE Screening Protocol and Assay Conditions (ATP concentration at Km).

Chain of human BTK (Q06187 whole entry): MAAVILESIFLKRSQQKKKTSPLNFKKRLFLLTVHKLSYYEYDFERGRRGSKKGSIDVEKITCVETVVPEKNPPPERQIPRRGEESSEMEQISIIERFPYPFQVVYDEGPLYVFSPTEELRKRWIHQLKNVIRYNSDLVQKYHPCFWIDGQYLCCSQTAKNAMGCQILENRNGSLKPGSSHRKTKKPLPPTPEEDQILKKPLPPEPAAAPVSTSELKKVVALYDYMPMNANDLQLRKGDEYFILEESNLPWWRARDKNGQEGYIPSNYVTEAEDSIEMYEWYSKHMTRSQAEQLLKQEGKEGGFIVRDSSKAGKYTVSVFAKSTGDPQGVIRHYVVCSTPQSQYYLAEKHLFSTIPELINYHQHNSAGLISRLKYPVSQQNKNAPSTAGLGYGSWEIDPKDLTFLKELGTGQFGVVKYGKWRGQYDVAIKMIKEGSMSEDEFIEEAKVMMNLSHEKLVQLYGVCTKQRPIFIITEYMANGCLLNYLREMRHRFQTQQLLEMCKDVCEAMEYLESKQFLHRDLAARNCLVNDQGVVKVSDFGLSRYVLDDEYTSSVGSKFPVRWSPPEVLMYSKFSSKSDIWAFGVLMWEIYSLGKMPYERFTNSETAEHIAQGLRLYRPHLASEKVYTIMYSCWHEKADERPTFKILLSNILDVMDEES

SMILES	IC50 [nM]
C=CC(=O)Nc1cccc2c1OCc1[nH]c(=O)c3c(N)n(-c4cc(O)ccc4C)nc3c1-2 [Example 1, N-[14-amino-15-(5-hydroxy-2-methylphenyl)-12-oxo-8-oxa-11,15,16-triazatetracyclo[8.7.0.0^2,7.0^13,17]heptadeca-1(10),2(7),3,5,13,16-hexaen-6-yl]prop-2-enamide]	< 10
Cc1ccc(O)cc1-n1nc2c3c([nH]c(=O)c2c1N)COc1c(NC(=O)/C=C/CN(C)C)cccc1-3 [Example 2, (2E)-N-[14-amino-15-(5-hydroxy-2-methylphenyl)-12-oxo-8-oxa-11,15,16-triazatetracyclo[8.7.0.0^2,7.0^13,17]heptadeca-1(10),2(7),3,5,13,16-hexaen-6-yl]-4-(dimethylamino)but-2-enamide]	< 10
CN(C)C/C=C/C(=O)Nc1cccc2c1OCc1[nH]c(=O)c3c(N)n(-c4ccc(Oc5ccccc5)cc4)nc3c1-2 [Example 3, (2E)-N-[14-amino-12-oxo-15-(4-phenoxyphenyl)-8-oxa-11,15,16-triazatetracyclo[8.7.0.0^2,7.0^13,17]heptadeca-1(10),2(7),3,5,13,16-hexaen-6-yl]-4-(dimethylamino)but-2-enamide]	< 10
C=CC(=O)Nc1cccc2c1OCc1[nH]c(=O)c3c(N)n(-c4ccccc4F)nc3c1-2 [Example 4, N-[14-amino-15-(2-fluorophenyl)-12-oxo-8-oxa-11,15,16-triazatetracyclo[8.7.0.0^2,7.0^13,17]heptadeca-1(10),2(7),3,5,13,16-hexaen-6-yl]prop-2-enamide]	10 to 100
